Source: ChEMBL document CHEMBL1770128, “Synthesis and antifungal activities of novel 5,6-dihydro-indolo[1,2-a]quinoxaline derivatives” (2011)

The compounds below were run on Alternaria alternata (assay: Antimicrobial activity against Alternaria alternata at 50 ug/ml […] by poisoned food technique). Conditions: 120 h.
Format: functional

SMILES | inhibition at 50 µg/mL
O=[N+]([O-])c1ccc(C2Nc3ccccc3-n3c2cc2ccccc23)cc1 (stereo not given) | 19.4%
Oc1ccc(C2Nc3ccccc3-n3c2cc2ccccc23)cc1 (stereo not given) | 58.3%
COc1cc(C2Nc3ccccc3-n3c2cc2ccccc23)ccc1O (stereo not given) | 9.2%
Cc1c2n(c3ccccc13)-c1ccccc1NC2c1ccc([N+](=O)[O-])cc1 (stereo not given) | 18.2%
Cc1c2n(c3ccccc13)-c1ccccc1NC2c1ccc(O)cc1 (stereo not given) | 55.6%
Cc1cccc2c1cc1n2-c2ccccc2NC1c1ccc([N+](=O)[O-])cc1 (stereo not given) | 17.7%
Cc1cccc2c1cc1n2-c2ccccc2NC1c1ccc(O)cc1 (stereo not given) | 72.9%
Cc1cccc2c1cc1n2-c2ccccc2NC1c1ccccc1 (stereo not given) | 29.2%
Cc1cccc2c1cc1n2-c2ccccc2NC1c1ccc(N(C)C)cc1 (stereo not given) | 19.8%
COc1ccc(C2Nc3ccccc3-n3c2cc2c(C)cccc23)cc1 (stereo not given) | 14.9%
COc1cc(C2Nc3ccccc3-n3c2cc2c(C)cccc23)ccc1O (stereo not given) | 17.9%
Cc1cccc2c1cc1n2-c2ccccc2NC1c1ccccc1O (stereo not given) | 12%
Cc1ccc2cc3n(c2c1)-c1ccccc1NC3c1ccc([N+](=O)[O-])cc1 (stereo not given) | 7.8%
Cc1ccc2cc3n(c2c1)-c1ccccc1NC3c1ccc(O)cc1 (stereo not given) | 56.3%
N#Cc1ccc2c(c1)cc1n2-c2ccccc2NC1c1ccc([N+](=O)[O-])cc1 (stereo not given) | 64.6%
Cc1cccc2c1cc1n2-c2ccccc2NC1(C)c1ccccc1 (stereo not given) | 32.7%
Cc1c2n(c3ccccc13)-c1ccccc1NC2c1ccco1 (stereo not given) | 37.3%
Cc1cc(O)no1 [HYMEXAZOL] | 68.8%

The compounds below were run on Pyricularia oryzae (assay: Antimicrobial activity against Pyricularia oryzae at 50 ug/ml after 5 days by poisoned food technique). Conditions: 120 h.
Format: functional

SMILES | inhibition at 50 µg/mL
O=[N+]([O-])c1ccc(C2Nc3ccccc3-n3c2cc2ccccc23)cc1 (stereo not given) | 5.8%
Oc1ccc(C2Nc3ccccc3-n3c2cc2ccccc23)cc1 (stereo not given) | 50.8%
COc1cc(C2Nc3ccccc3-n3c2cc2ccccc23)ccc1O (stereo not given) | 4.4%
Cc1c2n(c3ccccc13)-c1ccccc1NC2c1ccc([N+](=O)[O-])cc1 (stereo not given) | 11.8%
Cc1c2n(c3ccccc13)-c1ccccc1NC2c1ccc(O)cc1 (stereo not given) | 46.5%
Cc1cccc2c1cc1n2-c2ccccc2NC1c1ccc([N+](=O)[O-])cc1 (stereo not given) | 10.1%
Cc1cccc2c1cc1n2-c2ccccc2NC1c1ccc(O)cc1 (stereo not given) | 50.8%
Cc1cccc2c1cc1n2-c2ccccc2NC1c1ccccc1 (stereo not given) | 22.1%
Cc1cccc2c1cc1n2-c2ccccc2NC1c1ccc(N(C)C)cc1 (stereo not given) | 7.7%
COc1ccc(C2Nc3ccccc3-n3c2cc2c(C)cccc23)cc1 (stereo not given) | 15.1%
COc1cc(C2Nc3ccccc3-n3c2cc2c(C)cccc23)ccc1O (stereo not given) | 16%
Cc1cccc2c1cc1n2-c2ccccc2NC1c1ccccc1O (stereo not given) | 7.8%
Cc1ccc2cc3n(c2c1)-c1ccccc1NC3c1ccc([N+](=O)[O-])cc1 (stereo not given) | 1.6%
Cc1ccc2cc3n(c2c1)-c1ccccc1NC3c1ccc(O)cc1 (stereo not given) | 43.7%
N#Cc1ccc2c(c1)cc1n2-c2ccccc2NC1c1ccc([N+](=O)[O-])cc1 (stereo not given) | 62.8%
Cc1cccc2c1cc1n2-c2ccccc2NC1(C)c1ccccc1 (stereo not given) | 34.6%
Cc1c2n(c3ccccc13)-c1ccccc1NC2c1ccco1 (stereo not given) | 33.4%
Cc1cc(O)no1 [HYMEXAZOL] | 53.5%

These compounds were tested on Fusarium oxysporum f. sp. vasinfectum (assay: Antimicrobial activity against Fusarium oxysporum f. sp. vasinfectum at 50 ug/ml […] by poisoned food technique). Conditions: 120 h.
Format: functional

SMILES | inhibition at 50 µg/mL
O=[N+]([O-])c1ccc(C2Nc3ccccc3-n3c2cc2ccccc23)cc1 (stereo not given) | 9.2%
Oc1ccc(C2Nc3ccccc3-n3c2cc2ccccc23)cc1 (stereo not given) | 39.2%
COc1cc(C2Nc3ccccc3-n3c2cc2ccccc23)ccc1O (stereo not given) | 11%
Cc1c2n(c3ccccc13)-c1ccccc1NC2c1ccc([N+](=O)[O-])cc1 (stereo not given) | 11.4%
Cc1c2n(c3ccccc13)-c1ccccc1NC2c1ccc(O)cc1 (stereo not given) | 44%
Cc1cccc2c1cc1n2-c2ccccc2NC1c1ccc([N+](=O)[O-])cc1 (stereo not given) | 5.3%
Cc1cccc2c1cc1n2-c2ccccc2NC1c1ccc(O)cc1 (stereo not given) | 41.2%
Cc1cccc2c1cc1n2-c2ccccc2NC1c1ccccc1 (stereo not given) | 8.8%
Cc1cccc2c1cc1n2-c2ccccc2NC1c1ccc(N(C)C)cc1 (stereo not given) | 6.9%
COc1ccc(C2Nc3ccccc3-n3c2cc2c(C)cccc23)cc1 (stereo not given) | 9.7%
COc1cc(C2Nc3ccccc3-n3c2cc2c(C)cccc23)ccc1O (stereo not given) | 20.2%
Cc1cccc2c1cc1n2-c2ccccc2NC1c1ccccc1O (stereo not given) | 11.7%
Cc1ccc2cc3n(c2c1)-c1ccccc1NC3c1ccc([N+](=O)[O-])cc1 (stereo not given) | 11.7%
Cc1ccc2cc3n(c2c1)-c1ccccc1NC3c1ccc(O)cc1 (stereo not given) | 37.3%
N#Cc1ccc2c(c1)cc1n2-c2ccccc2NC1c1ccc([N+](=O)[O-])cc1 (stereo not given) | 60.8%
Cc1cccc2c1cc1n2-c2ccccc2NC1(C)c1ccccc1 (stereo not given) | 23.6%
Cc1c2n(c3ccccc13)-c1ccccc1NC2c1ccco1 (stereo not given) | 17.8%
Cc1cc(O)no1 [HYMEXAZOL] | 62.7%

Each compound was assayed on Fusarium graminearum (assay: Antimicrobial activity against Fusarium graminearum at 50 ug/ml after 5 days by poisoned food technique). Conditions: 120 h.
Format: functional

SMILES | inhibition at 50 µg/mL
O=[N+]([O-])c1ccc(C2Nc3ccccc3-n3c2cc2ccccc23)cc1 (stereo not given) | 17.2%
Oc1ccc(C2Nc3ccccc3-n3c2cc2ccccc23)cc1 (stereo not given) | 52.1%
COc1cc(C2Nc3ccccc3-n3c2cc2ccccc23)ccc1O (stereo not given) | 15.7%
Cc1c2n(c3ccccc13)-c1ccccc1NC2c1ccc([N+](=O)[O-])cc1 (stereo not given) | 26.6%
Cc1c2n(c3ccccc13)-c1ccccc1NC2c1ccc(O)cc1 (stereo not given) | 48%
Cc1cccc2c1cc1n2-c2ccccc2NC1c1ccc([N+](=O)[O-])cc1 (stereo not given) | 24.6%
Cc1cccc2c1cc1n2-c2ccccc2NC1c1ccc(O)cc1 (stereo not given) | 51.3%
Cc1cccc2c1cc1n2-c2ccccc2NC1c1ccccc1 (stereo not given) | 32%
Cc1cccc2c1cc1n2-c2ccccc2NC1c1ccc(N(C)C)cc1 (stereo not given) | 17.6%
COc1ccc(C2Nc3ccccc3-n3c2cc2c(C)cccc23)cc1 (stereo not given) | 12.2%
COc1cc(C2Nc3ccccc3-n3c2cc2c(C)cccc23)ccc1O (stereo not given) | 12.3%
Cc1cccc2c1cc1n2-c2ccccc2NC1c1ccccc1O (stereo not given) | 8.8%
Cc1ccc2cc3n(c2c1)-c1ccccc1NC3c1ccc([N+](=O)[O-])cc1 (stereo not given) | 12.2%
Cc1ccc2cc3n(c2c1)-c1ccccc1NC3c1ccc(O)cc1 (stereo not given) | 41.2%
N#Cc1ccc2c(c1)cc1n2-c2ccccc2NC1c1ccc([N+](=O)[O-])cc1 (stereo not given) | 56.3%
Cc1cccc2c1cc1n2-c2ccccc2NC1(C)c1ccccc1 (stereo not given) | 43%
Cc1c2n(c3ccccc13)-c1ccccc1NC2c1ccco1 (stereo not given) | 31.5%
Cc1cc(O)no1 [HYMEXAZOL] | 57%

These compounds were tested on Alternaria brassicae (assay: Antimicrobial activity against Alternaria brassicae at 50 ug/ml […] by poisoned food technique). Conditions: not given.
Format: functional

SMILES | inhibition at 50 µg/mL
O=[N+]([O-])c1ccc(C2Nc3ccccc3-n3c2cc2ccccc23)cc1 (stereo not given) | 11.2%
Oc1ccc(C2Nc3ccccc3-n3c2cc2ccccc23)cc1 (stereo not given) | 31.4%
COc1cc(C2Nc3ccccc3-n3c2cc2ccccc23)ccc1O (stereo not given) | 15.7%
Cc1c2n(c3ccccc13)-c1ccccc1NC2c1ccc([N+](=O)[O-])cc1 (stereo not given) | 13.3%
Cc1c2n(c3ccccc13)-c1ccccc1NC2c1ccc(O)cc1 (stereo not given) | 53%
Cc1cccc2c1cc1n2-c2ccccc2NC1c1ccc([N+](=O)[O-])cc1 (stereo not given) | 10.4%
Cc1cccc2c1cc1n2-c2ccccc2NC1c1ccc(O)cc1 (stereo not given) | 55.9%
Cc1cccc2c1cc1n2-c2ccccc2NC1c1ccccc1 (stereo not given) | 30.4%
Cc1cccc2c1cc1n2-c2ccccc2NC1c1ccc(N(C)C)cc1 (stereo not given) | 10.4%
COc1ccc(C2Nc3ccccc3-n3c2cc2c(C)cccc23)cc1 (stereo not given) | 7.2%
COc1cc(C2Nc3ccccc3-n3c2cc2c(C)cccc23)ccc1O (stereo not given) | 21%
Cc1cccc2c1cc1n2-c2ccccc2NC1c1ccccc1O (stereo not given) | 55.8%
Cc1ccc2cc3n(c2c1)-c1ccccc1NC3c1ccc([N+](=O)[O-])cc1 (stereo not given) | 13%
Cc1ccc2cc3n(c2c1)-c1ccccc1NC3c1ccc(O)cc1 (stereo not given) | 49%
N#Cc1ccc2c(c1)cc1n2-c2ccccc2NC1c1ccc([N+](=O)[O-])cc1 (stereo not given) | 52.4%
Cc1cccc2c1cc1n2-c2ccccc2NC1(C)c1ccccc1 (stereo not given) | 29.9%
Cc1c2n(c3ccccc13)-c1ccccc1NC2c1ccco1 (stereo not given) | 30.1%
Cc1cc(O)no1 [HYMEXAZOL] | 47.1%
